{
  "source": "patent US3965109A",
  "about": "“Certain aryl amino pyridines” (priority 1971, dated 1976)",
  "key": {"[1]": {"tested_on": "Pieris brassicae (cabbage white caterpillars)", "test": "Pest toxicity test", "assay_type": "in vivo", "settings": "0.1% by weight, 2 days"}, "[2]": {"tested_on": "Aedes aegypti (mosquito adults)", "test": "Pest toxicity test", "assay_type": "in vivo", "settings": "0.01% by weight; plywood; 1 day"}, "[3]": {"tested_on": "Musca domestica (houseflies)", "test": "Pest toxicity test, contact test", "assay_type": "in vivo", "settings": "0.1% by weight; milk/sugar; 2 days; flies sprayed directly"}, "[4]": {"tested_on": "Erwinia carotovora", "test": "Antibacterial agar test (B4)", "assay_type": "cell-based", "settings": "50 ppm; 5 days"}, "[5]": {"tested_on": "Aedes aegypti (mosquito larvae)", "test": "Pest toxicity test", "assay_type": "in vivo", "settings": "0.01% by weight; water; 1 day"}, "[6]": {"tested_on": "Corynebacterium michiganense", "test": "Antibacterial agar test (B2)", "assay_type": "cell-based", "settings": "50 ppm; 5 days", "how_it_was_run": "(§1)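 Compound was dissolved or suspended in acetone and mixed into nutrient agar to 50 ppm final, then dried overnight in Petri dishes. Plates were inoculated with the bacteria via multipoint inoculator and antibacterial activity was graded after 5 days.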"}, "[7]": {"tested_on": "Meloidogyne incognita (nematodes)", "test": "Pest toxicity test", "assay_type": "in vivo", "settings": "0.01% by weight; water; 1 day"}, "[8]": {"tested_on": "Wheat", "test": "Herbicidal test, pre- and post-emergence", "assay_type": "in vivo", "settings": "10 kg/ha; scale 0 to 3 (complete kill)"}, "[9]": {"tested_on": "Tetranychus telarius (red spider mites, adults)", "test": "Pest toxicity test", "assay_type": "in vivo", "settings": "0.1% by weight; French bean; 3 days"}, "[10]": {"tested_on": "Lettuce", "test": "Herbicidal test, pre- and post-emergence", "assay_type": "in vivo", "settings": "10 kg/ha; scale 0 to 3 (complete kill)"}, "[11]": {"tested_on": "Tomato", "test": "Herbicidal test, pre- and post-emergence", "assay_type": "in vivo", "settings": "10 kg/ha; scale 0 to 3 (complete kill)"}, "[12]": {"tested_on": "Maize", "test": "Herbicidal test, pre- and post-emergence", "assay_type": "in vivo", "settings": "10 kg/ha; scale 0 to 3 (complete kill)"}, "[13]": {"tested_on": "Xanthomonas malvacearum", "test": "Antibacterial agar test (B3)", "assay_type": "cell-based", "settings": "50 ppm; 5 days", "how_it_was_run": "as §1"}, "[14]": {"tested_on": "Phaedon cochleariae (mustard beetles)", "test": "Pest toxicity test", "assay_type": "in vivo", "settings": "in vivo"}, "[15]": {"tested_on": "Megoura viceae", "test": "Pest toxicity test", "assay_type": "in vivo", "settings": "0.1% by weight; broad bean; 2 days"}, "[16]": {"tested_on": "Plutella maculipennis (diamond back moth larvae)", "test": "Pest toxicity test", "assay_type": "in vivo", "settings": "in vivo"}, "[17]": {"tested_on": "Xanthomonas oryzae", "assay_type": "cell-based", "settings": "50 ppm; 5 days"}, "[18]": {"tested_on": "Streptomyces scabies", "test": "Antibacterial agar test (B7)", "assay_type": "cell-based", "settings": "50 ppm; 5 days"}, "[19]": {"tested_on": "Agrobacterium tumifaciens", "test": "Antibacterial agar test (B1)", "assay_type": "cell-based", "settings": "50 ppm; 5 days"}, "[20]": {"tested_on": "Pseudomonas syringae", "test": "Antibacterial agar test (B6)", "assay_type": "cell-based", "settings": "50 ppm; 5 days"}, "[21]": {"tested_on": "Plasmopara viticola (vine)", "test": "Fungicidal test against foliar disease C (foliage spray plus soil drench)", "assay_type": "in vivo", "settings": "100 ppm spray and drench; 10 days"}, "[22]": {"tested_on": "Agriolimax reticulatus (slugs)", "test": "Molluscicidal activity test", "assay_type": "in vivo, Agriolimax reticulatus (Mull)", "settings": "pellet with 4% by weight; 6 days; 10°C", "how_it_was_run": "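Compound was applied to a calf feeding pellet at 4% by weight active ingredient after 24 h air drying. Two replicates, each of 2 slugs starved 24 h, were kept with a moist filter paper at 10°C, and kill was assessed after 6 days.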"}, "[23]": {"tested_on": "Uncinula necator (vine)", "test": "Fungicidal test against foliar disease D (foliage spray plus soil drench)", "assay_type": "in vivo", "settings": "100 ppm spray and drench; 10 days"}, "[24]": {"tested_on": "Aphis fabae", "test": "Pest toxicity test", "assay_type": "in vivo", "settings": "0.1% by weight; broad bean; 2 days"}},
  "data": [
    {"molecule": "O=[N+]([O-])c1cc(Cl)cc([N+](=O)[O-])c1Nc1c(Cl)c(F)nc(F)c1Cl", "note": "[Compound 29, 3,5-Dichloro-2,6-difluoro-4(4-chloro-2,6-dinitroanilino)pyridine]", "values": [
      {"measurement": "Mortality grading (kill)", "setting": "[1]", "result": "0 (O represents less than 30% kill)"},
      {"measurement": "Mortality grading (kill)", "setting": "[2]", "result": "0 (O represents less than 30% kill)"},
      {"measurement": "Mortality grading (kill), contact test", "setting": "[3]", "result": "0 (O represents less than 30% kill)"},
      {"measurement": "Antibacterial activity grading B4", "setting": "[4]", "result": "3 (0 to 5)"},
      {"measurement": "Mortality grading (kill)", "setting": "[5]", "result": "3 (3 represents over 90% kill)"},
      {"measurement": "Antibacterial activity grading B2", "setting": "[6]", "result": "3 (0 to 5)"},
      {"measurement": "Mortality grading (kill)", "setting": "[7]", "result": "0 (O represents less than 30% kill)"},
      {"measurement": "Damage to plants, post-emergence", "setting": "[8]", "result": 0},
      {"measurement": "Damage to plants, pre-emergence", "setting": "[8]", "result": 3},
      {"measurement": "Mortality grading (kill)", "setting": "[9]", "result": "3 (3 represents over 90% kill)"},
      {"measurement": "Damage to plants, post-emergence", "setting": "[10]", "result": 0},
      {"measurement": "Damage to plants, pre-emergence", "setting": "[10]", "result": 3},
      {"measurement": "Damage to plants, post-emergence", "setting": "[11]", "result": 0},
      {"measurement": "Damage to plants, pre-emergence", "setting": "[11]", "result": 3},
      {"measurement": "Damage to plants, post-emergence", "setting": "[12]", "result": 0},
      {"measurement": "Damage to plants, pre-emergence", "setting": "[12]", "result": 0},
      {"measurement": "Antibacterial activity grading B3", "setting": "[13]", "result": "3 (0 to 5)"},
      {"measurement": "Mortality grading (kill)", "setting": "[14]", "result": "0 (key: O represents less than 30% kill; 1 represents 30 - 49% kill; 2 represents 60 - 90% kill; 3 represents over 90% kill; C indicates a chemosterilant effect.; A indicates an antifeeding effect.)"},
      {"measurement": "Mortality grading (kill)", "setting": "[15]", "result": "3 (3 represents over 90% kill)"},
      {"measurement": "Mortality grading (kill)", "setting": "[16]", "result": "0 (key: O represents less than 30% kill; 1 represents 30 - 49% kill; 2 represents 60 - 90% kill; 3 represents over 90% kill; C indicates a chemosterilant effect.; A indicates an antifeeding effect.)"},
      {"measurement": "Antibacterial activity grading B5", "setting": "[17]", "result": "3 (0 to 5)"},
      {"measurement": "Antibacterial activity grading B7", "setting": "[18]", "result": "3 (0 to 5)"},
      {"measurement": "Antibacterial activity grading B1", "setting": "[19]", "result": "3 (0 to 5)"},
      {"measurement": "Antibacterial activity grading B6", "setting": "[20]", "result": "3 (0 to 5)"},
      {"measurement": "Amount of disease grading, disease C (Table 4)", "setting": "[21]", "result": "3 (0 to 5)"},
      {"measurement": "% Kill of slugs", "setting": "[22]", "result": 50, "unit": "%"},
      {"measurement": "Amount of disease grading, disease D (Table 4)", "setting": "[23]", "result": "3 (0 to 5)"},
      {"measurement": "Mortality grading (kill)", "setting": "[24]", "result": "3 (3 represents over 90% kill)"}
    ]}
  ]
}
